Data set [1] has as its system rat scar model. In words: Rat scar model (skin wound healing). The class given is in vivo. The following applies: rat back wound 2.4 cm; 0.5% cream on the skin. An excerpt:
1.1 Preparation method of treatment cream: The excipient matrix components included methyl silicone oil (15%), stearic acid (6%), white vaseline (5%), liquid paraffin (5%), octadecanol (5%), glycerin (20%), alkylaryl polyglycol ether (1%), fatty alcohol polyoxyethylene ether (1%), […] (1%), ethyl paraben (0.1%), distilled water (about 31-55%), and mixed with appropriate amount of CLY series compounds to form a mixed emulsion. The emulsion matrix used in this embodiment refers to the matrix component after the active ingredient was removed from the emulsion.
1.2 Grouping and modeling of experimental animals: SPF grade male rats, weighing (210±28) g, from the Animal Center of Nanyi University. The rats were numbered according to their body weight and using the random array method, samples were divided into the model control group (applied cream matrix), CLY-1 treatment group (applied 0.5% CLY-1 cream on the skin), CLY-2 treatment group (applied 0.5% CLY-2 cream on the skin), CLY-3 treatment group (0.5% CLY-3 cream on the skin), CLY-4 treatment group (0.5% CLY-4 cream on the skin), CLY-8 treatment group (0.5% CLY-8 cream on the skin), CLY-11 treatment group (0.5% CLY-11 cream on the skin) CLY-19 treatment group (0.5% CLY-19 cream on the skin), CLY-36 treatment group (0.5% CLY-36 cream on the skin), and CLY-39 treatment group (0.5% CLY-39 cream on the skin), 6 in each group. Rats in each group were anesthetized by intraperitoneal injection of 2% pentobarbital sodium (120 mg/kg) and fixed on the operating table, and then chose a piece of 4×5 cm of intact skin on the back, 8% sodium sulfide hair removal, used tissue scissors to cut a wound with a diameter of 2.4 cm and a depth of muscle fascia at the hair removal site, and damage part of the muscle surface fascia. Animals were kept in separate cages to prevent rats from biting and licking. Applied 2% iodine tincture daily to the wound for routine disinfection, and observed the wound healing of rats.
The wounds were routinely disinfected every day, and the wounds of rats were observed on the 1st, 3rd, 5th, 7th, 12th, and 20th days. […] On the 12th day, the wounds in each treatment group had basically recovered, while the model group still had about 0.5 cm2 of wounds. By the 20th day, the wounds in each group had recovered, and the model control group left obvious scars, while each treatment group only left different amounts of pigmentation.

Data set [2] in a line: Pharmacokinetic properties of rats (bioavailability). It counts as in vivo. The following applies: rat, po; male SD rats; intravenous 1 mg/kg, intragastric 5 mg/kg; plasma LC/MS/MS. As to the method: Male SD rats were randomly assigned to each group, 12 rats in each compound group, and then randomly divided into two groups. Six rats were administered intravenously (1 mg/kg), and blood was collected and plasma was separated respectively at 0.0833, 0.25, 0.5, 1, 2, 4, 6, 8, and 24 hours after administration. The other six rats were administered intragastrically (5 mg/kg), and blood was collected and plasma was separated respectively at 0.25, 0.5, 1, 2, 4, 6, 8, and 24 hours after administration. The concentration of each compound in plasma was determined by LC/MS/MS method, and the relevant pharmacokinetic parameters were calculated by using the software Phoenix WinNonlin 6.2.1, the bioavailability in rats was calculated, and the pharmacokinetic properties of each compound were evaluated.

The subject of data set [3] is rabbit ear acne model. The data set can be described thus: Rabbit ear acne model: epidermal thickness, hair follicle area, sebaceous gland diameter. It counts as in vivo, New Zealand rabbits. The following applies: rabbit right ear. An excerpt: New Zealand rabbits were, according to weights, randomly divided into the model control group (applied cream matrix), positive treatment group (applied Differin on the skin), CLY-1 external treatment group (0.25% CLY-1 cream on the skin), CLY-2 external treatment group (0.25% CLY-2 cream on the skin), CLY-3 external treatment group (0.25% CLY-3 cream on the skin), CLY-4 external treatment group (0.25% CLY-4 cream on the skin) CLY-8 external treatment group (0.25% CLY-8 cream on the skin), CLY-9 external treatment group (0.25% CLY-9 cream on the skin), CLY-11 external treatment group (0.25% CLY-11 cream on the skin), CLY-19 external treatment group (0.25% CLY-19 cream on the skin), CLY-36 external treatment group (0.25% CLY-36 cream on the skin); CLY-1 intravenous injection group (1 mg/kg·d), CLY-2 intravenous injection group (1 mg/kg·d), CLY-3 intravenous injection group (1 mg/kg·d), CLY-4 intravenous injection group (1 mg/kg·d), CLY-8 intravenous injection group (1 mg/kg·d), CLY-9 intravenous injection group (1 mg/kg·d), CLY-11 intravenous injection group (1 mg/kg·d), CLY-19 intravenous injection group (1 mg/kg·d), and CLY-36 intravenous injection group (1 mg/kg·d), with 10 in each group. Took the inner side of the rabbit's right ear for depilation treatment as the observation area, and the inner side of the left ear of all rabbits as their own negative control, and applied 95% alcohol. The inner side of the right ear of the model group and the treatment group were both coated with 2% coal tar (Alfa Aesar China, which used 95% alcohol to prepare 2% coal tar solution), and evenly applied the sterile cotton swab to the opening of the ear duct on the inner side of the rabbit's ear within the range of about 2 cm×2 cm, once a day, 0.5 mL each time, and wiped the previous application site with warm water for 14 consecutive days to establish the acne micro-pigmentation model. Visually observed the changes of local skin, including ear thickness, hardness, roughness, and whether there was a black angle plug at the hair follicle mouth. 18 hours after the last application, the sample was sacrificed and skin was taken. The skin tissue was taken from the application site by using a 5 mm punch, fixed with 10% formaldehyde, embedded in paraffin, and stained with HE. The histopathological observation and analysis were carried out.
The histopathological changes were observed under the microscope, and the thickness of five different epidermises on a slice was measured with the Biomias99 image analysis system, and the average value was calculated; Detected the area of the two hair follicles and the diameter of the four sebaceous glands with the same position and the most complete structure in the four sections, calculated their average values, and then subtracted the data of the left and right external auditory canal of the rabbits in each group to obtain the difference in the thickness of the left and right ear epidermis, the difference in the area of the hair follicles and the difference in the diameter of the sebaceous glands.
SPSS16 software was used for statistical analysis. The paired t-test was used for the left and right self-contrast, and the t-test was used for the comparison between the groups, P<0.05 was statistically significant.

[4] abbreviates: external use (0.25% CLY cream; positive: Differin).
[5] abbreviates: intravenous injection 1 mg/kg·d.

Marks after values point to notes of the source that are not given here.

As a reminder, the bioavailability is the share of a dose that reaches the circulation, judged against a reference dose that is usually intravenous. Low readings indicate poor availability, high ones good availability.

As to `CN1CCC[C@@H](N(C(=O)c2ccc(-n3nnc4cccnc43)cc2)c2ncccc2Cl)C1` [CLY-1, (R)-4-(3H-[1,2,3]triazolo[4,5-b]pyridin-3-yl)-N-(3-chloropyridin-2-yl)-N-(1-methylpiperidin-3-yl)benzamide], the “skin wound healing and scar formation” value in data set [1] was “significantly promote skin wound healing and reduce scar formation”. The compound also displayed a bioavailability in data set [2] of 69.8%. For the same compound, in data set [3] (setting [4]), the epidermal thickness stood at 0.2376 ± 0.0182 mm, the hair follicle area is on record as 0.2736 ± 0.0967* mm^2 and the sebaceous gland diameter is 0.0825 ± 0.0389 mm. For the same compound, in data set [3] (setting [5]), the epidermal thickness was determined as 0.2287 ± 0.0171 mm, the hair follicle area is 0.2256 ± 0.0863* mm^2 and the sebaceous gland diameter was found to be 0.0536 ± 0.0312 mm.
As to `CCN1CCC[C@@H](N(C(=O)c2ccc(-n3nnc4cccnc43)cc2)c2ncccc2Cl)C1` [CLY-2, (R)-4-(3H-[1,2,3]triazolo[4,5-b]pyridin-3-yl)-N-(3-chloropyridin-2-yl)-N-(1-ethylpiperidin-3-yl)benzamide], the “skin wound healing and scar formation” value in data set [1] is “significantly promote skin wound healing and reduce scar formation”. Further, in data set [2], the bioavailability came out at 72.6%. Also, in data set [3] (setting [4]), the epidermal thickness is 0.2348 ± 0.0169 mm, the hair follicle area is recorded as 0.2639 ± 0.0934* mm^2 and the sebaceous gland diameter is 0.0687 ± 0.0375 mm. Moreover, in data set [3] (setting [5]), the epidermal thickness was 0.2265 ± 0.0165 mm, the hair follicle area is listed as 0.2232 ± 0.0859* mm^2 and the sebaceous gland diameter amounted to 0.0496 ± 0.0298 mm.
Consider `CNC1CCCC(N(C(=O)c2ccc(-n3nnc4cccnc43)cc2)c2ncccc2Cl)C1` (centres unmarked) [CLY-3], for which the “skin wound healing and scar formation” value in data set [1] is “significantly promote skin wound healing and reduce scar formation”. In data set [2], this compound showed a bioavailability of 69.5%. In data set [3] (setting [4]), the epidermal thickness was 0.2385 ± 0.0198 mm, the hair follicle area is on record as 0.2923 ± 0.0987* mm^2 and the sebaceous gland diameter is on record as 0.0837 ± 0.0412 mm. Also, in data set [3] (setting [5]), the epidermal thickness is recorded as 0.2316 ± 0.0196 mm, the hair follicle area was 0.2287 ± 0.0883* mm^2 and the sebaceous gland diameter is on record as 0.0575 ± 0.0354 mm.
Turning to `O=C(c1ccc(-n2nnc3cccnc32)cc1)N(c1ncccc1Cl)C1CCCC(O)C1` (centres unmarked) [CLY-4], the “skin wound healing and scar formation” value in data set [1] was “significantly promote skin wound healing and reduce scar formation”. In data set [2], the bioavailability amounted to 59.5%. Besides, in data set [3] (setting [4]), the epidermal thickness is listed as 0.2436 ± 0.0215 mm, the hair follicle area is 0.3254 ± 0.1126* mm^2 and the sebaceous gland diameter was determined as 0.0958 ± 0.0456 mm. In data set [3] (setting [5]), the epidermal thickness is given as 0.2363 ± 0.0235 mm, the hair follicle area is given as 0.2465 ± 0.0923* mm^2 and the sebaceous gland diameter turned out to be 0.0625 ± 0.0386 mm.
Regarding `COC1CCCC(N(C(=O)c2ccc(-n3nnc4cccnc43)cc2)c2ncccc2Cl)C1` (centres unmarked) [CLY-5], in data set [2], the bioavailability was 53.8%.
Regarding `O=C(c1ccc(-n2nnc3cccnc32)cc1)N(c1ncccc1Cl)[C@@H]1CCNC1` [CLY-8, (R)-4-(3H-[1,2,3]triazolo[4,5-b]pyridin-3-yl)-N-(3-chloropyridin-2-yl)-N-(pyrrolidin-3-yl)benzamide], the “skin wound healing and scar formation” value in data set [1] is “significantly promote skin wound healing and reduce scar formation”. The same compound yielded a bioavailability in data set [2] of 78.2%. Also, in data set [3] (setting [4]), the epidermal thickness is listed as 0.2237 ± 0.0168 mm, the hair follicle area is 0.2115 ± 0.0832* mm^2 and the sebaceous gland diameter was 0.0663 ± 0.0307 mm. Also, in data set [3] (setting [5]), the epidermal thickness was 0.1843 ± 0.0156 mm, the hair follicle area was 0.1845 ± 0.0653* mm^2 and the sebaceous gland diameter was determined as 0.0572 ± 0.0289 mm.
Consider `NC1CCCC(N(C(=O)c2ccc(-n3nnc4cccnc43)cc2)c2ncccc2Cl)C1` (centres unmarked) [CLY-11], for which the “skin wound healing and scar formation” value in data set [1] is “significantly promote skin wound healing and reduce scar formation”. Moreover, the bioavailability in data set [2] was found to be 63.5%. In data set [3] (setting [4]), the epidermal thickness is listed as 0.2372 ± 0.0176 mm, the hair follicle area is given as 0.2745 ± 0.0946* mm^2 and the sebaceous gland diameter stood at 0.0786 ± 0.0392 mm. Also, in data set [3] (setting [5]), the epidermal thickness is 0.2295 ± 0.0173 mm, the hair follicle area is recorded as 0.2246 ± 0.0856* mm^2 and the sebaceous gland diameter worked out at 0.0552 ± 0.0325 mm.
Regarding `O=C(c1ccc(-c2ccccc2-c2nnn[nH]2)cc1)N(c1ncccc1Cl)[C@@H]1CCCNC1` [CLY-19], in data set [1], the “skin wound healing and scar formation” value was “significantly promote skin wound healing and reduce scar formation”. Further, in data set [2], the bioavailability was 66.3%. In addition, in data set [3] (setting [4]), the epidermal thickness is reported as 0.2365 ± 0.0181 mm, the hair follicle area is given as 0.2766 ± 0.0953* mm^2 and the sebaceous gland diameter was 0.0795 ± 0.0398 mm. For the same compound, in data set [3] (setting [5]), the epidermal thickness stood at 0.2276 ± 0.0165 mm, the hair follicle area is recorded as 0.2235 ± 0.0843* mm^2 and the sebaceous gland diameter is reported as 0.0523 ± 0.0316 mm.
Consider `O=C(c1ccc(-c2ccccc2Cl)cc1)N(c1ncccc1Cl)[C@@H]1CCCNC1` [CLY-36], for which, in data set [1], the “skin wound healing and scar formation” value is “significantly promote skin wound healing and reduce scar formation”. This compound also had a bioavailability in data set [2] of 68.6%. Also, in data set [3] (setting [4]), the epidermal thickness is given as 0.2387 ± 0.0186 mm, the hair follicle area is recorded as 0.2773 ± 0.0945* mm^2 and the sebaceous gland diameter was 0.0805 ± 0.0406 mm. In data set [3] (setting [5]), the epidermal thickness is on record as 0.2282 ± 0.0171 mm, the hair follicle area is 0.2241 ± 0.0846* mm^2 and the sebaceous gland diameter turned out to be 0.0536 ± 0.0319 mm.

Values taken from patent publication US20240300945A1, “CLY SERIES COMPOUND, PREPARATION METHOD THEREFOR AND USE THEREOF IN PREPARATION OF DRUGS” (NANJING WELLBEST PHARMACEUTICAL CO., LTD, priority 2021, published 2024).
